Test results reported in ChEMBL document CHEMBL5036361, “Structurally Diverse Sesquiterpenoid Glycoside Esters from Pittosporum qinlingense with Anti-neuroinflammatory Activity” (J Nat Prod, 2022).
The source made the active and inactive calls. The rule behind the calls is not given here.

Legend:
[1] = test system: BV-2; assay: Cytotoxicity against mouse BV-2 cells at 6.25 to 100 uM after 24 hrs by MTT assay; type: cell-based; settings: bv-2, 24 h, dose 6.25-100 µM
[2] = test system: BV-2; assay: Antineuroinflammatory activity against mouse BV-2 cells assessed as inhibition of LPS-induced NO production incubated for 24 hrs by Griess assay; type: functional, cell-based; settings: BV-2, 24 h
[3] = test system: BV-2; assay: Downregulation of LPS-induced iNOS expression in mouse BV-2 cells at 1.25 to 10 uM preincubated for 1 hr followed by LPS stimulation for 24 hrs by western blot analysis; type: functional, cell-based; settings: dose 1.25-10 µM
[4] = test system: BV-2; assay: Downregulation of LPS-induced COX-2 expression in mouse BV-2 cells at 1.25 to 10 uM preincubated for 1 hr followed by LPS stimulation for 24 hrs by western blot analysis; type: functional, cell-based; settings: dose 1.25-10 µM

SMILES	Activity [1]	IC50 [2]	Activity [3]	Activity [4]
C=C1C[C@H](O[C@@H]2O[C@H](C)[C@H](O)[C@H](OC(=O)/C(C)=C/C)[C@H]2OC(C)=O)[C@H]2[C@@H]([C@H]3[C@@H]1CC[C@]3(C)O)C2(C)C	Non-Toxic	> 50 µM	–	–
C/C=C(/C)C(=O)O[C@H]1[C@@H](O)[C@@H](C)O[C@@H](O[C@]2(C)CC[C@@H]3[C@H]([C@@H]4[C@H](C)CC[C@@H]42)C3(C)C)[C@@H]1OC(C)=O	Non-Toxic	1.43 µM	–	–
C[C@@H]1CC[C@H]2[C@@H]1[C@H]1[C@@H](CC[C@@]2(C)O[C@@H]2O[C@H](C)[C@H](O)[C@H](O)[C@H]2O)C1(C)C	Non-Toxic	> 50 µM	–	–
O=c1c(O)c(-c2ccc(O)c(O)c2)oc2cc(O)cc(O)c12 [QUERCETIN]	–	2.45 µM	–	–
C/C=C(/C)C(=O)O[C@H]1[C@@H](OC(C)=O)[C@@H](C)O[C@@H](O[C@]2(C)CC[C@@H]3[C@H]([C@@H]4[C@H](C)CC[C@@H]42)C3(C)C)[C@@H]1OC(C)=O	Non-Toxic	0.97 µM	inactive	Active
CC1(C)[C@H]2[C@H]3[C@@H](CC[C@@]3(C)O)[C@](C)(O)CC[C@H]21	Non-Toxic	> 50 µM	–	–
C=C1CC[C@@H](O)[C@]2(C)CC[C@@H](C(C)(C)O[C@@H]3O[C@H](C)[C@H](O)[C@H](OC(=O)/C(C)=C/C)[C@H]3OC(C)=O)[C@H](OC)[C@@H]12	Non-Toxic	> 50 µM	–	–
CC(=O)O[C@@H]1[C@H](OC(=O)C=C(C)C)[C@@H](OC(C)=O)[C@H](O[C@@]2(C)CC[C@@H]3[C@H]([C@@H]4[C@H](C)CC[C@@H]42)C3(C)C)O[C@@H]1C	Non-Toxic	0.95 µM	Active	Active
C/C=C(/C)C(=O)O[C@@H]1[C@@H](OC(C)=O)[C@H](O[C@]2(C)CC[C@@H]3[C@H]([C@@H]4[C@H](C)CC[C@@H]42)C3(C)C)OC[C@H]1O	Non-Toxic	24.1 µM	–	–
CC(C)[C@@H]1CC[C@@]2(C)[C@H](O)CC[C@](C)(O)[C@@H]2[C@H]1O	Non-Toxic	> 50 µM	–	–
CCC(C)C(=O)O[C@H]1[C@@H](O)[C@@H](C)O[C@@H](O[C@]2(C)CC[C@@H]3[C@H]([C@@H]4[C@H](C)CC[C@@H]42)C3(C)C)[C@@H]1OC(C)=O (some centres not stated)	Non-Toxic	> 50 µM	–	–
CC(=O)O[C@H]1[C@H](O[C@]2(C)CC[C@@H]3[C@H]([C@@H]4[C@H](C)CC[C@@H]42)C3(C)C)O[C@H](CO)[C@@H](O)[C@@H]1O	Non-Toxic	> 50 µM	–	–
C=C1C[C@H](O[C@@H]2O[C@H](C)[C@H](O)[C@H](O)[C@H]2OC(C)=O)[C@H]2[C@@H]([C@H]3[C@@H]1CC[C@]3(C)O)C2(C)C	Non-Toxic	> 50 µM	–	–
C/C=C(/C)C(=O)O[C@H]1[C@H](O)[C@@H](CO)O[C@@H](O[C@]2(C)CC[C@@H]3[C@H]([C@@H]4[C@H](C)CC[C@@H]42)C3(C)C)[C@@H]1OC(C)=O	Non-Toxic	6.27 µM	Active	Active
CC(=O)O[C@H]1[C@H](O[C@]2(C)CC[C@@H]3[C@H]([C@@H]4[C@H](C)CC[C@@H]42)C3(C)C)O[C@H](C)[C@H](O)[C@@H]1OC(=O)/C=C(/C)CO	Non-Toxic	17.6 µM	–	–
C/C=C(\C)C(=O)O[C@H]1[C@@H](O)[C@@H](C)O[C@@H](O[C@H]2C[C@@](C)(O)[C@H]3CC[C@](C)(O)[C@H]3[C@H]3[C@@H]2C3(C)C)[C@@H]1OC(C)=O	Non-Toxic	> 50 µM	–	–
C/C=C(/C)C(=O)O[C@H]1[C@H](O)[C@@H](OC(C)=O)[C@H](O[C@]2(C)CC[C@@H]3[C@H]([C@@H]4[C@H](C)CC[C@@H]42)C3(C)C)O[C@@H]1CO	Non-Toxic	21.5 µM	–	–
C[C@@H]1CC[C@H]2[C@@H]1[C@H]1[C@@H](CC[C@@]2(C)O)C1(C)C	Non-Toxic	> 50 µM	–	–
C=C1C[C@@H](O[C@@H]2O[C@H](C)[C@H](O)[C@H](OC(=O)/C(C)=C/C)[C@H]2OC(C)=O)[C@@H](C(C)C)[C@@H]2C=C(C)CC[C@@H]12	Non-Toxic	> 50 µM	–	–
CC(=O)O[C@H]1[C@H](O[C@@]2(C)CC[C@@H]3[C@H]([C@@H]4[C@H](C)CC[C@@H]42)C3(C)C)O[C@H](C)[C@H](O)[C@@H]1OC(=O)C=C(C)C	Non-Toxic	4.95 µM	Active	Active
